Measurements taken from ChEMBL document CHEMBL5346971, “Discovery of the First Irreversible HDAC6 Isoform Selective Inhibitor with Potent Anti-Multiple Myeloma Activity” (J Med Chem, 2023).
Calls of active or inactive are those of the source. The rule behind the calls is not given here.

What was measured:
[1] = molecular target: T1, Protein deacetylase HDAC6 (Homo sapiens) (UniProt Q9UBN7); assay: Irreversible inhibition of HDAC6 in human A549 cells assessed as acetyl alpha-tubulin level at 0.4 uM incubated for 5 hrs followed by drug wash-out and measured immediately after drug wash-out by western blot analysis relative to control; assay type: cell-based
T1 sequence (whole entry): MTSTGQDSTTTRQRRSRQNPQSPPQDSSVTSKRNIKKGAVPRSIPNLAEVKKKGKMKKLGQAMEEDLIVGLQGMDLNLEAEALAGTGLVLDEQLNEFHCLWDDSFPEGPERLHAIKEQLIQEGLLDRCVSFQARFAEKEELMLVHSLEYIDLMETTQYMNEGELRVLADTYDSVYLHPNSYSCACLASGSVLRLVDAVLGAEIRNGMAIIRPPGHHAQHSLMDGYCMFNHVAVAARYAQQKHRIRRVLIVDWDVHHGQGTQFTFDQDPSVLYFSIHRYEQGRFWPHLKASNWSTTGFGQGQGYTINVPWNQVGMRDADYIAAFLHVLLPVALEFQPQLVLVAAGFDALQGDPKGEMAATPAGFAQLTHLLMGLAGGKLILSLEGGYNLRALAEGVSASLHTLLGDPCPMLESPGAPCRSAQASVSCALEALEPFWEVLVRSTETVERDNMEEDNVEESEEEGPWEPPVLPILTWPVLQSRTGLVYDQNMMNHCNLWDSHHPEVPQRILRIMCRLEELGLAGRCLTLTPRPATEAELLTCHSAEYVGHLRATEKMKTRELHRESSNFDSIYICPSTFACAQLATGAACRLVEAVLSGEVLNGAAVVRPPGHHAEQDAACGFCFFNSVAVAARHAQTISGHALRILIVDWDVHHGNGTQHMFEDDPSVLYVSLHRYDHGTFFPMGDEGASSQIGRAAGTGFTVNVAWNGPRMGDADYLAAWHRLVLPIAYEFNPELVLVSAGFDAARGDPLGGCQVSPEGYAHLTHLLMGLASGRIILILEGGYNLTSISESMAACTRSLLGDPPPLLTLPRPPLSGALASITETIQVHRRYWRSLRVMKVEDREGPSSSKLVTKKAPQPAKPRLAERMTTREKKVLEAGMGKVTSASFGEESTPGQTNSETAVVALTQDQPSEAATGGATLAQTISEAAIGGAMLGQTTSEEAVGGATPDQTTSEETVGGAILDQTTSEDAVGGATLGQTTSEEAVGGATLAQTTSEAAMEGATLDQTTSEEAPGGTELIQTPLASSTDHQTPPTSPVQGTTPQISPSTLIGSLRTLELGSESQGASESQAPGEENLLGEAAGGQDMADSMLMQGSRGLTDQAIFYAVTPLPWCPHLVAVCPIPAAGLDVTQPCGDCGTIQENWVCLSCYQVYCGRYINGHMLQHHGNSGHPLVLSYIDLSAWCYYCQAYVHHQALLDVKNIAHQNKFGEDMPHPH

U-266 = assay: Antiproliferative activity against human U-266 cells assessed as inhibition of cell proliferation incubated for 48 hrs by CCK8 assay; assay type: functional, cell-based; details: U-266, 48 h
RPMI-8226 = assay: Induction of apoptosis in human RPMI-8226 cells assessed as proportion of late apoptotic cells at 0.5 uM incubated for 24 hrs by AnnexinV-FITC/PI staining based flow cytometry (reference value: 4.18%); assay type: functional, cell-based
[2] = Metabolic stability of the compound in rat liver microsomes assessed as parent compound remaining measured after 60 mins in presence of NADPH by LC-MS/MS analysis; assay type: ADME, Microsome; details: read-out: Stability

SMILES: O=C(NO)c1ccc(COc2no[n+]([O-])c2S(=O)(=O)c2ccccc2)cc1
- fold change (FC) [1]: 5.2
- IC50 (U-266): 700 nM
- Activity (RPMI-8226): Active
- remaining at 1 h [2]: 0.6%
